Results reported in ChEMBL document CHEMBL3399915, “Design, synthesis, and evaluation of phenylglycinols and phenyl amines as agonists of GPR88” (Bioorg Med Chem Lett, 2015).
Blank lines part the entries; values can stand above or below the compound they belong to.

Experiments:
[1] = target: T1, G protein-coupled receptor 88 (Homo sapiens, UniProt Q9GZN0); assay: Agonist activity at GPR88 (unknown origin) transfected in forskolin-stimulated HEK cells assessed as inhibition of cAMP production after 30 mins by HTRF method relative to control; assay type: functional, cell-based, HEK293
T1 sequence (Q9GZN0 whole entry): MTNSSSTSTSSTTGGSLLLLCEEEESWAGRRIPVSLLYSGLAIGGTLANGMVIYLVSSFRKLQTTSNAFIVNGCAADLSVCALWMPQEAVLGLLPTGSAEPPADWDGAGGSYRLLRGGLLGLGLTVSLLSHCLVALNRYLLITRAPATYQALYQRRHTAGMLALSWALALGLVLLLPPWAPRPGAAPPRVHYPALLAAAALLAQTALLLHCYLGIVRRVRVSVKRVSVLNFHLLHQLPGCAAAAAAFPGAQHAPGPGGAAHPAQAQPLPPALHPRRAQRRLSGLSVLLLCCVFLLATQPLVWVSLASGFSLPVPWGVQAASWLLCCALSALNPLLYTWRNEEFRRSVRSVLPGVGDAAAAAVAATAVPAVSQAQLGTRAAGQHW

[2] = Plasma concentration in rat at 10 mg/kg, ip after 30 mins; assay type: ADME, organism-based; design: dose 10 mg/kg, route intraperitoneal
[3] = Protein binding in rat brain by equilibrium dialysis method; assay type: ADME, tissue-based; settings: read-out: PB (converted)
[4] = Drug uptake in rat CSF at 10 mg/kg, ip after 30 mins; assay type: ADME, organism-based, Cerebrospinal fluid; design: dose 10 mg/kg, route intraperitoneal; settings: read-out: Drug uptake
[5] = Drug uptake in rat lung at 10 mg/kg, ip after 30 mins; assay type: ADME, organism-based; design: dose 10 mg/kg, route intraperitoneal; settings: read-out: Drug uptake
[6] = Drug uptake in rat brain at 10 mg/kg, ip after 30 mins; assay type: ADME, organism-based; design: dose 10 mg/kg, route intraperitoneal; settings: read-out: Drug uptake
[7] = Clearance in mouse at 10 mg/kg, ip; assay type: ADME, organism-based; design: dose 10 mg/kg, route intraperitoneal; settings: in vivo
[8] = Ratio of drug level in brain to plasma in mouse at 1 mg/kg, iv after 30 mins; assay type: ADME, organism-based; design: dose 1 mg/kg, route intravenous; settings: brain and plasma, read-out: BPR
[9] = Half life in mouse at 1 mg/kg, iv; assay type: ADME, organism-based; design: dose 1 mg/kg, route intravenous; settings: in vivo
[10] = target: T1, G protein-coupled receptor 88; assay: Agonist activity at GPR88 (unknown origin) transfected in forskolin-stimulated HEK cells assessed as [35S]GTPgammaS binding after 60 mins by trilux scintillation counting analysis relative to control; assay type: functional, cell-based, HEK293
[11] = Drug uptake in mouse brain at 1 mg/kg, iv after 30 mins; assay type: ADME, organism-based; design: dose 1 mg/kg, route intravenous; settings: read-out: Drug uptake
[12] = Plasma concentration in mouse at 1 mg/kg, iv after 30 mins; assay type: ADME, organism-based; design: dose 1 mg/kg, route intravenous
[13] = Volume of distribution at steady state in mouse at 1 mg/kg, iv; assay type: ADME, organism-based; design: dose 1 mg/kg, route intravenous; settings: in vivo, read-out: Vdss
[14] = Clearance in mouse at 1 mg/kg, iv; assay type: ADME, organism-based; design: dose 1 mg/kg, route intravenous; settings: in vivo
[15] = Plasma protein binding in mouse by equilibrium dialysis method; assay type: ADME, cell-free; settings: read-out: PPB (converted)
[16] = Plasma protein binding in rat by equilibrium dialysis method; assay type: ADME, cell-free; settings: read-out: PPB (converted)
[17] = Drug uptake in rat lung at 30 mg/kg, ip after 30 mins; assay type: ADME, organism-based; design: dose 30 mg/kg, route intraperitoneal; settings: read-out: Drug uptake
[18] = Drug uptake in rat brain at 30 mg/kg, ip after 30 mins; assay type: ADME, organism-based; design: dose 30 mg/kg, route intraperitoneal; settings: read-out: Drug uptake
[19] = Plasma concentration in rat at 30 mg/kg, ip after 30 mins; assay type: ADME, organism-based; design: dose 30 mg/kg, route intraperitoneal
[20] = Drug uptake in rat CSF at 30 mg/kg, ip after 30 mins; assay type: ADME, organism-based, Cerebrospinal fluid; design: dose 30 mg/kg, route intraperitoneal; settings: read-out: Drug uptake

- concentration at 0.5 h [2]: 1240 nM
- fraction unbound [3]: 0.23
- concentration at 0.5 h [4]: 335 nM
- EC50 [1]: 410 nM
- concentration at 0.5 h [5]: 970 nM
- concentration at 0.5 h [6]: 450 nM
SMILES: COc1ccc([C@H](CO)NC(=O)[C@@H](C)c2ccccc2)cc1

- concentration at 0.5 h [2]: 860 nM
- fraction unbound [3]: 0.09
- concentration at 0.5 h [4]: 1.1 nM
- EC50 [1]: > 10000 nM
- CL/F [7]: 66 mL/min/kg
- concentration at 0.5 h [5]: 59500 nM
- concentration at 0.5 h [6]: 340 nM
SMILES: CC[C@H](C)COc1ccc([C@H](CN)NC(=O)[C@@H](C)c2ccccc2)cc1

- EC50 [1]: 190 nM
SMILES: CC[C@H](C)COc1ccc([C@H](CO)NC(=O)[C@@H](C)c2ccccc2)cc1

- EC50 [1]: > 10000 nM
SMILES: COCC(C)Oc1ccc([C@H](CO)NC(=O)[C@@H](C)c2ccccc2)cc1 (stereo partly drawn)

- EC50 [1]: > 10000 nM
SMILES: CO[C@@H](C)COc1ccc([C@H](CO)NC(=O)[C@@H](C)c2ccccc2)cc1

- EC50 [1]: 860 nM
SMILES: CCCC(C)COc1ccc([C@H](CO)NC(=O)[C@@H](NC)c2ccccc2)cc1 (mixture of isomers)

- EC50 [1]: > 10000 nM
SMILES: C[C@H](C(=O)N[C@@H](CO)c1ccc(OCC2CCO2)cc1)c1ccccc1 (stereo partly drawn)

- EC50 [1]: 500 nM
SMILES: CC(C)COc1ccc([C@H](CO)NC(=O)[C@@H](C)c2ccccc2)cc1

- EC50 [1]: 110 nM
SMILES: CCCC(C)COc1ccc([C@H](CN)NC(=O)[C@@H](C)c2ccccc2)cc1 (mixture of isomers)

The remaining lines, values behind:

SMILES: CCCC(C)COc1ccc([C@H](CO)NC(=O)Cc2ccccc2)cc1 (mixture of isomers)
- EC50 [1]: > 10000 nM

SMILES: CC[C@H](C)COc1ccc([C@H](CO)NC(=O)[C@@H](C)c2ccccc2)c(F)c1
- EC50 [1]: 460 nM

SMILES: O=C(N[C@@H](CO)c1ccc2ccccc2c1)[C@@H]1C[C@H]1c1ccccc1
- EC50 [1]: > 270000 nM

SMILES: CCCC(C)COc1ccc([C@H](CO)NC(=O)c2ccccc2)cc1 (mixture of isomers)
- EC50 [1]: 170 nM

SMILES: CC[C@H](C)COc1ccc([C@H](CO)NC(=O)[C@@H](C)c2ccccc2)c(C)c1
- EC50 [1]: 160 nM

SMILES: O=C(N[C@@H](CO)c1ccc2ccccc2c1)[C@H]1C[C@H]1c1ccccc1
- EC50 [1]: > 110000 nM

SMILES: CCCC(C)COc1ccc([C@H](CN2CCOCC2)NC(=O)[C@@H](C)c2ccccc2)cc1 (mixture of isomers)
- EC50 [1]: 91 nM

SMILES: CC[C@H](C)COc1ccc([C@H](CO)NC(=O)[C@@H](C)c2ccccc2)c(OC)c1
- EC50 [1]: 190 nM

SMILES: Cc1ccc(-c2ccc([C@H](CO)NC(=O)[C@H]3C[C@@H]3c3cccs3)cc2)cc1
- Kp at 0.5 h [8]: 2
- half-life [9]: 36 min
- EC50 [10]: 240 nM
- %max ([10]; HEK293): 90%
- concentration at 0.5 h [11]: 695 nM
- concentration at 0.5 h [12]: 290 nM
- Vd [13]: 2.17 L/kg
- clearance [14]: 47 mL/min/kg
- EC50 [1]: 93 nM
- %max ([1]; HEK293): 90%
- fraction unbound [15]: 0.036
- fraction unbound [16]: 0.025

SMILES: CCCC(C)COc1ccc([C@H](CO)NC(=O)[C@H]2C[C@@H]2c2ccccc2)cc1 (mixture of isomers)
- EC50 [1]: 730 nM

SMILES: O=C(NC(CO)c1ccc2ccccc2c1)[C@@H]1C[C@H]1c1ccccc1 (mixture of isomers)
- EC50 [1]: 6000 nM

SMILES: CCCC(C)COc1ccc([C@H](CO)NC(=O)C(CO)c2ccccc2)cc1 (mixture of isomers)
- EC50 [1]: 810 nM

SMILES: CCCC(C)COc1ccc([C@H](CN2CCCC2)NC(=O)[C@@H](C)c2ccccc2)cc1 (mixture of isomers)
- EC50 [1]: 570 nM

SMILES: CCCC(C)COc1ccc([C@H](CO)NC(=O)N(CC)Cc2ccccc2)cc1 (mixture of isomers)
- EC50 [1]: 1500 nM

SMILES: CC[C@H](C)COc1ccc([C@H](CO)NC(=O)[C@@H](C)c2ccccc2)c(C)n1
- EC50 [1]: 260 nM

SMILES: CC[C@H](C)COc1ccc([C@H](CO)NC(=O)[C@H]2C[C@@H]2c2cccs2)cc1
- concentration at 0.5 h [17]: 11500 nM
- concentration at 0.5 h [18]: 5540 nM
- concentration at 0.5 h [19]: 5270 nM
- concentration at 0.5 h [2]: 2210 nM
- fraction unbound [3]: 0.06
- concentration at 0.5 h [4]: 5.6 nM
- concentration at 0.5 h [20]: 5.7 nM
- EC50 [1]: > 10000 nM
- CL/F [7]: 144 mL/min/kg
- concentration at 0.5 h [6]: 2510 nM

SMILES: O=C(N[C@@H](CO)c1ccc2ccccc2c1)[C@H]1C[C@@H]1c1ccccc1
- EC50 [1]: 2500 nM

SMILES: CC[C@H](C)COc1cc(C)c([C@H](CO)NC(=O)[C@@H](C)c2ccccc2)c(C)c1
- EC50 [1]: 170 nM

SMILES: CC(C)COc1ccc([C@H](CO)NC(=O)[C@H]2C[C@@H]2c2cccs2)cc1
- concentration at 0.5 h [2]: 3240 nM
- fraction unbound [3]: 0.05
- concentration at 0.5 h [4]: 24 nM
- EC50 [1]: 690 nM
- CL/F [7]: 176 mL/min/kg
- concentration at 0.5 h [5]: 10500 nM
- concentration at 0.5 h [6]: 6850 nM

SMILES: CCCC(C)COc1ccc([C@H](CN(C)C)NC(=O)[C@@H](C)c2ccccc2)cc1 (mixture of isomers)
- EC50 [1]: 29 nM

SMILES: O=C(N[C@@H](CO)c1ccc2ccccc2c1)[C@@H]1C[C@@H]1c1ccccc1
- EC50 [1]: > 81000 nM

SMILES: CCCC(C)COc1ccc([C@H](CN2CCN(C)CC2)NC(=O)[C@@H](C)c2ccccc2)cc1 (mixture of isomers)
- EC50 [1]: 90 nM
